Results: article PMC8814031, “Synthesis and characterization of novel combretastatin analogues of 1,1-diaryl vinyl sulfones, with antiproliferative potential via in-silico and in-vitro studies” (Scientific Reports, 2022)
Where two headings read alike, the source gives them in different places.

Experiments:
A549 (lung cancer) cells = experiment: MTT antiproliferative assay, A549; type: cell-based; conditions: Homo sapiens, 48 h, mean ± SEM of three experiments, read-out: IC50 values against selected human cancer cell lines, A549
Method: These cancer cell lines were obtained from the American Type Culture Collection (ATCC), Manassas, VA, USA, and stored before use.
The pale yellow coloured tetrazolium salt (MTT) reduced to a dark blue water-insoluble formazan by metabolically active cells and the product was measured quantitatively after solubility in DMSO. The absorbance of the soluble formazan is directly proportional to the number of viable cells. A panel of four cancer cell lines were used for testing the in-vitro cytotoxicity. These cell lines were grown in Dulbecco’s modified Eagle’s medium (DMEM) containing non-essential amino acids and 10% FBS. […] The 96-well micro titre plates were incubated for 24 h prior to addition of the experimental compounds. […] The supernatant was aspirated and plates were air dried and the MTT-formazan crystals were dissolved in 100 µL of DMSO.
(§1) The optical density (O.D) was measured at 570 nm using TECAN multimode reader (Infinite® M200Pro, Tecan, Switzerland). The percent cell viability of each treated well of 96 well plate was calculated based on test wells relative to control wells. Doxorubicin was used as positive controls for comparison purpose and 1% DMSO as a vehicle control.

[1] = tested on: HeLa (cervical cancer) cells; experiment: MTT antiproliferative assay, HeLa; type: cell-based; conditions: 48 h, mean ± SEM of three experiments, read-out: IC50 values against selected human cancer cell lines, HeLa
From the text: (§2) A panel of four cancer cell lines used for testing the in-vitro cytotoxicity include: MDA-MB-231 derived from human breast adenocarcinoma cells (ATCC No HTB-26), HeLa derived from human cervical cancer cells (ATCC No. CCL-2), A549 derived from human alveolar adenocarcinoma epithelial cells (ATCC No. CCL-185) and IMR-32 derived from human neuroblastoma cell line (ATCC No CCL-127), with a normal cell line HEK-293 (human embryonic kidney cell). These cancer cell lines were obtained from the American Type Culture Collection (ATCC), Manassas, VA, USA, and stored before use.
(§3) The cytotoxicity of synthesized compounds 4A–V were determined in triplicates by 3-[4,5-dimethylthiazol-2-yl]-2,5-diphenyltetrazolium bromide (MTT) assay[51]^,[52]. The pale yellow coloured tetrazolium salt (MTT) reduced to a dark blue water-insoluble formazan by metabolically active cells and the product was measured quantitatively after solubility in DMSO. The absorbance of the soluble formazan is directly proportional to the number of viable cells. A panel of four cancer cell lines were used for testing the in-vitro cytotoxicity. These cell lines were grown in Dulbecco’s modified Eagle’s medium (DMEM) containing non-essential amino acids and 10% FBS. All the cells were maintained under humidified conditions of 5% CO2 atmosphere at 37 °C in a CO2 incubator (Model Galaxy 170S, Eppendorf, USA). The 96-well micro titre plates were incubated for 24 h prior to addition of the experimental compounds. Cells were treated with vehicle alone (DMSO) or compounds (drugs (1 µg/mL) were dissolved in 100 µL DMSO previously) at different concentrations (0.1, 1, 10 and 25 µM) of test compounds for 48 h. The assay was completed with the addition of MTT (5%, 10µL) and incubated for 60 min at 37 °C. The supernatant was aspirated and plates were air dried and the MTT-formazan crystals were dissolved in 100 µL of DMSO.
as §1, with “control. The cytotoxicity of test compounds was expressed in terms of IC50 value, which is defined as a concentration of compound that produced 50% reduction absorbance relative to control, and the absorbance at 570 nm wavelength was recorded.” for “control.”

[2] = tested on: IMR-32 (neuroblast cancer) cells; experiment: MTT antiproliferative assay, IMR-32; type: cell-based; conditions: mean ± SEM of three experiments, read-out: IC50 values against selected human cancer cell lines, IMR32
From the text: as §2, §3
as §1, with “control. The cytotoxicity of test compounds was expressed in terms of IC50 value, which is defined as a concentration of compound that produced 50% reduction absorbance relative to control, and the absorbance at 570 nm wavelength was recorded.” for “control.”

[3] = tested on: MDA-MB 231 (breast cancer) cells; experiment: MTT antiproliferative assay, MDA-MB 231; type: cell-based; conditions: mean ± SEM of three experiments, read-out: IC50 values against selected human cancer cell lines, MDA-MB 231
From the text: as §2, §3
as §1, with “control. The cytotoxicity of test compounds was expressed in terms of IC50 value, which is defined as a concentration of compound that produced 50% reduction absorbance relative to control, and the absorbance at 570 nm wavelength was recorded.” for “control.”

[4] = tested on: HEK-293 (human embryonic kidney normal cell line); experiment: MTT cytotoxicity assay, normal cell line HEK-293; type: cell-based; conditions: for IC50: normal cell line
From the text: as §2, §3
as §1, with “control. The cytotoxicity of test compounds was expressed in terms of IC50 value, which is defined as a concentration of compound that produced 50% reduction absorbance relative to control, and the absorbance at 570 nm wavelength was recorded.” for “control.”

IC50 (A549 (lung cancer) cells) [µM] | melting point [°C] | IC50 ([1]; Homo sapiens, HeLa) [µM] | IC50 ([2]; Homo sapiens, IMR-32, 48 h) [µM] | IC50 ([3]; Homo sapiens, MDA-MB-231, 48 h) [µM] | IC50 [1] [µM] | IC50 ([2]; 48 h) [µM] | IC50 ([3]; 48 h) [µM] | SMILES | IC50 ([4]; Homo sapiens, HEK293, 48 h) [µM] | Cytotoxicity towards normal cell line HEK-293 (in words) ([4]; normal cells) | IC50 ([4]; 48 h) [µM]
6.92 ± 0.65 | 141 to 143 | 8.73 ± 0.49 | 7.29 ± 0.46 | 13.2 ± 1.49 | – | – | – | COc1cc(/C(=C\S(=O)(=O)c2ccc(C)cc2)c2ccc(F)cc2)cc(OC)c1OC [Compound 4G] | > 25 | – | –
5.12 ± 0.08 | 96 to 98 | – | 6.79 ± 0.44 | 11.1 ± 1.5 | – | – | – | COc1cc(/C(=C\S(=O)(=O)c2ccc(C)cc2)c2ccc(Cl)cc2)cc(OC)c1OC [Compound 4M] | > 25 | – | –
7.02 ± 0.84 | 125 to 127 | 9.5 ± 0.49 | 8.06 ± 0.09 | 13.6 ± 0.89 | – | – | – | CCOc1ccc(F)c(/C(=C/S(=O)(=O)c2ccc(C)cc2)c2cc(OC)c(OC)c(OC)c2)c1 [Compound 4K] | > 25 | – | –
7.04 ± 0.08 | 107 to 109 | 10.6 ± 0.56 | 7.04 ± 0.83 | 13.6 ± 1.56 | – | – | – | COc1ccc(/C(=C/S(=O)(=O)c2ccc(C)cc2)c2cc(OC)c(OC)c(OC)c2)c(OC)c1 [Compound 4C] | > 25 | – | –
11.1 ± 0.78 | 132 to 134 | 11.7 ± 0.81 | 11.8 ± 0.13 | 23.9 ± 1.56 | – | – | – | COc1cc(/C(=C\S(=O)(=O)c2ccc(C)cc2)c2ccc(-c3ccccc3)cc2)cc(OC)c1OC [Compound 4U] | > 25 | – | –
4.68 ± 0.46 | 124 to 126 | 8.59 ± 0.58 | 4.1 ± 0.96 | 14.6 ± 0.85 | – | – | – | COc1ccc(/C(=C/S(=O)(=O)c2ccc(C)cc2)c2cc(OC)c(OC)c(OC)c2)cc1 [Compound 4B] | > 25 | – | –
6.84 ± 0.7 | 125 to 127 | 9.62 ± 0.44 | 7.48 ± 0.13 | 15.9 ± 1.44 | – | – | – | COc1cc(/C(=C\S(=O)(=O)c2ccc(C)cc2)c2ccc(C(F)(F)F)cc2)cc(OC)c1OC [Compound 4H] | > 25 | – | –
5.32 ± 0.92 | 163 to 165 | 11.1 ± 0.51 | 6.23 ± 0.09 | 14.1 ± 1.51 | – | – | – | COc1cc(OC)cc(/C(=C/S(=O)(=O)c2ccc(C)cc2)c2cc(OC)c(OC)c(OC)c2)c1 [Compound 4E] | > 25 | – | –
6.39 ± 0.68 | 139 to 141 | 9.4 ± 0.72 | 6.4 ± 0.82 | 19.4 ± 1.72 | – | – | – | COc1cc(/C(=C\S(=O)(=O)c2ccc(C)cc2)c2ccccc2)cc(OC)c1OC [Compound 4A, (Z)-1,2,3-trimethoxy-5-(1-phenyl-2-tosylvinyl)benzene] | > 25 | – | –
– | 119 to 121 | – | – | – | – | – | – | COc1cc(C#CS(=O)(=O)c2ccc(C)cc2)cc(OC)c1OC [Compound 4V] | – | showed some level of cytotoxicity | –
8.54 ± 0.85 | 123 to 125 | 8.74 ± 0.49 | 5.12 ± 0.36 | 13.4 ± 1.49 | – | – | – | COc1cc(/C(=C\S(=O)(=O)c2ccc(C)cc2)c2ccc(F)c(Cl)c2)cc(OC)c1OC [Compound 4L] | > 25 | – | –
– | – | – | – | – | 10.7 ± 0.74 | 7.46 ± 0.61 | 12.2 ± 1.61 | COc1cc(/C(=C\S(=O)(=O)c2ccc(C)cc2)c2cccc(C(F)(F)F)c2F)cc(OC)c1OC [Compound 4Q] | – | – | > 25
7.22 ± 0.81 | 124 to 126 | 8.39 ± 0.99 | 6.29 ± 0.07 | 10.4 ± 1.55 | – | – | – | COc1cc(/C(=C\S(=O)(=O)c2ccc(C)cc2)c2ccc(C)c(F)c2)cc(OC)c1OC [Compound 4T] | > 25 | – | –
13.1 ± 0.86 | 113 to 115 | 9.46 ± 0.4 | 15.1 ± 0.16 | 12.7 ± 0.4 | – | – | – | COc1cc(/C(=C\S(=O)(=O)c2ccc(C)cc2)c2ccc(F)cc2F)cc(OC)c1OC [Compound 4I] | > 25 | – | –
5.52 ± 0.06 | 173 to 175 | 10.9 ± 0.54 | 6.25 ± 0.03 | 14.9 ± 1.54 | – | – | – | COc1ccc(/C(=C/S(=O)(=O)c2ccc(C)cc2)c2cc(OC)c(OC)c(OC)c2)cc1OC [Compound 4D] | > 25 | – | –
– | – | 1.68 ± 0.24 | 0.23 | 0.89 ± 0.02 | – | – | – | COc1cccc2c1C(=O)c1c(O)c3c(c(O)c1C2=O)C[C@@](O)(C(=O)CO)C[C@@H]3O[C@H]1C[C@H](N)[C@H](O)[C@H](C)O1 [Doxorubicin, reference compound] | – | – | –
11.3 ± 0.83 | 140 to 142 | 9.98 ± 0.42 | 12.03 ± 0.02 | 13.1 ± 0.92 | – | – | – | COc1cc(/C(=C\S(=O)(=O)c2ccc(C)cc2)c2ccc(F)c(F)c2)cc(OC)c1OC [Compound 4J] | > 25 | – | –
7.46 ± 0.07 | – | 10.5 ± 1.03 | 6.14 ± 0.03 | 12.2 ± 0.54 | – | – | – | COc1cc(/C(=C\S(=O)(=O)c2ccc(C)cc2)c2cc(C)ccc2F)cc(OC)c1OC [Compound 4R] | > 25 | – | –
9.14 ± 0.91 | 165 to 167 | 9.83 ± 0.76 | 9.08 ± 0.07 | 12.4 ± 1.67 | – | – | – | COc1cc(/C(=C\S(=O)(=O)c2ccc(C)cc2)c2ccc(C#N)cc2)cc(OC)c1OC [Compound 4O] | > 25 | – | –
6.79 ± 0.19 | 151 to 153 | 9.64 ± 0.96 | 9.14 ± 0.84 | 9.85 ± 0.72 | – | – | – | COc1cc(/C(=C\S(=O)(=O)c2ccc(C)cc2)c2ccc(Cl)c(Cl)c2)cc(OC)c1OC [Compound 4N] | > 25 | – | –
